Experimental data taken from patent publication US10472341B2, “Bicyclic tetrahydrothiazepine derivatives useful for the treatment of neoplastic and/or infectious diseases” (APEIRON BIOLOGICS AG, priority 2015, dated 2019).
Where two headings read alike, the source gives them in different places.

Assays:
[1] = test system: aCD3/aCD28-stimulated human CD4+-T-cells; assay: IL-2 production and activation markers in aCD3/aCD28 stimulated isolated human CD4+-T-cells; assay type: cell-based; conditions: IL-2 production at 3 μM compound
Procedure: • Buffy coat content was transferred to sterile plastic bottle and filled up to 480 ml with PBS, and distributed equally to 16×50 ml tubes (30 ml/tube) • Underlayed with ˜11 ml Lymphoprep and centrifuged 20 min (2200 rpm) • The interphase containing lymphocytes was taken off with transfer pipette, cells were washed twice with PBS and pooled to one tube to determine cell count (Coulter Diff ACT) Isolation of Immune Cell Subfractions from PBMCs by MACS • PBMCs were resuspended in MACS buffer (80 μl MACS-buffer/10^7 cells) and cells were isolated with Auto-MACS device using respective kits following manufacturer's recommendations TCR Stimulation and Measurement of T Cell Activation
Isolated T cells were plated in Xvivo medium at 1.5*10 ^5 cells per in 96 well culture plates and TCR-stimulated with anti-CD3/28 mAbs in the presence of compound as indicated. Cytokine production was determined at 24 h or 48 h following TCR stimulation in cell culture supernatants using commercially available ELISA kits (BD and eBioscience) as recommended by the manufacturer. T cell proliferation and CD25 expression (CD25-PC5 reagent purchased from Beckman Coulter) was determined by flow cytometry (Beckman-Coulter FC500) and analysed with Kaluza Software. For measurement of CD69 expression, isolated CD4 and CD8 T cells were plated in Xvivo medium at […] per in 96 well culture plates and TCR-stimulated with anti-CD3/28 mAbs in the presence of compound. CD69 expression was determined at 24 h following TCR stimulation by flow cytometry (CD4eF450, CD8APCeF780 and CD69-PC7 reagent purchased from eBioscience) and analysed with Kaluza Software.
Buffy coats were obtained from Austrian Red Cross, diluted 3 fold with PBS and layered onto an isotonic Ficoll separating solution d=1.077 g/m in 50 ml centrifuge tubes. The tubes were centrifuged at 914 g for 25 min at room temperature with the brakes off. The PBMC layer was removed and washed twice with ice-cold PBS. CD4 T cells were isolated using CD4 microbeads (Milteny) and the AutoMACS device following manufacturer's instructions.
Compound examples of the present invention were classified according to the following activity criteria and are listed in Table 4a: • Activity Class A: IL-2 production at 3 μM compound concentration >10 ng/mL • Activity Class B: IL-2 production at 3 μM compound concentration between 2-10 ng/mL • Activity Class C: IL-2 production at 3 μM compound concentration between 2-fold increase as compared to mean IL-2 production of stimulated cells in the absence of compounds and <2 ng/mL

[2] = test system: aCD3/aCD28-stimulated human PBMCs; assay: Cytokine production in aCD3/aCD28 stimulated human PBMCs; assay type: cell-based; conditions: PBMC, 18 h
Procedure: In order to determine the immune modulatory effect of compounds of compounds of the present invention in human PBMCs, compounds were assessed in the following assay set-up:
Buffy coats were obtained from a local hospital, diluted 3 fold with PBS and layered onto an isotonic Ficoll separating solution d=1.077 g/mL in 50 mL centrifuge tubes. The tubes were centrifuged at 914 g for 25 min at room temperature with the brakes off. The PBMC layer was removed and washed twice with ice-cold PBS. Erythrocytes were lysed by addition of ddH2O and cells were resuspended in X-Vivo15 (Lonza).
1e6 cells/mL were stimulated with soluble anti CD3/CD28 antibodies (1 μg/mL both, clones OKT3 and 28.2) in the presence of described compounds. Cells were incubated for 18 h at 37° C., 5% CO2. Assay plates were centrifuged at 400 g for 5 min and supernatants harvested. Cytokine concentration in tissue culture supernatants were determined with MSD or HTRF kits (MSD and Cisbio), according to manufacturer's instructions.

[3] = enhancement of IFN-γ production, read-out: Activity Class IFN-γ
[4] = enhancement of IL-2 production, read-out: Activity Class IL-2

Row | SMILES | Activity Class CD4+ [1] | EC50 [2, 3] [µM] | EC50 [2, 4] [µM]
1 | Cl.N[C@H]1CS(=O)(=O)c2cc(F)c(C(=O)N[C@@H]3CC3(F)F)cc2N(Cc2ccc(Cl)cc2)C1=O (single isomer, unassigned) [Example 106] | B (IL-2 production at 3 μM compound concentration between 2-10 ng/mL) |  | 
2 | Cl.N[C@H]1CSc2ccc(C(=O)NC3CCOCC3)cc2N(Cc2ccc(OC(F)(F)F)cc2)C1=O [Example 8, (3R)-3-amino-N-(oxan-4-yl)-4-oxo-5-{[4-(trifluoromethoxy)phenyl]methyl}-2,3,4,5-tetrahydro-1,5-benzothiazepine-7-carboxamide hydrochloride] | C (IL-2 production at 3 μM compound concentration between 2-fold increase as compared to mean IL-2 production of stimulated cells in the absence of compounds and <2 ng/mL) |  | 
3 | N[C@H]1CS(=O)(=O)c2ccc(C(=O)N[C@@H]3C[C@@H]3F)cc2N(Cc2ccc(Cl)cc2)C1=O [Example 147, (3R)-3-amino-5-[(4-chlorophenyl)methyl]-N-[(1R,2S)-2-fluorocyclopropyl]-1,1,4-trioxo-2,3,4,5-tetrahydro-1λ^6,5-benzothiazepine-7-carboxamide] |  | > 5.01 | > 5.01
4 | N[C@H]1CS(=O)(=O)c2ccc(C(=O)NC3CC(F)(F)C3)cc2N(Cc2ccccc2F)C1=O [Example 148, (3R)-3-amino-N-(3,3-difluorocyclobutyl)-5-[(2-fluorophenyl)methyl]-1,1,4-trioxo-2,3,4,5-tetrahydro-1λ^6,5-benzothiazepine-7-carboxamide] |  | 1.58 to 5.01 | > 5.01
5 | COc1cccc(CN2C(=O)[C@@H](N)CS(=O)(=O)c3ccc(C(=O)NC4CC(F)(F)C4)cc32)c1 [Example 149, (3R)-3-amino-N-(3,3-difluorocyclobutyl)-5-[(3-methoxyphenyl)methyl]-1,1,4-trioxo-2,3,4,5-tetrahydro-1λ^6,5-benzothiazepine-7-carboxamide] |  | > 5.01 | > 5.01
6 | N[C@H]1CS(=O)(=O)c2ccc(C(=O)N[C@@H]3CCOC3)cc2N(Cc2ccc(Cl)cc2)C1=O [Example 156, (3R)-3-amino-5-[(4-chlorophenyl)methyl]-1,1,4-trioxo-N-[(3R)-oxolan-3-yl]-2,3,4,5-tetrahydro-1λ^6,5-benzothiazepine-7-carboxamide] |  | > 5.01 | > 5.01
7 | N[C@H]1CS(=O)(=O)c2ccc(C(=O)NCC3CCOC3)cc2N(Cc2ccc(Cl)cc2)C1=O (stereo partly drawn) [Example 157, (3R)-3-amino-5-[(4-chlorophenyl)methyl]-1,1,4-trioxo-N-[(oxolan-3-yl)methyl]-2,3,4,5-tetrahydro-1λ^6,5-benzothiazepine-7-carboxamide] |  | > 5.01 | > 5.01
8 | COc1ccc(CN2C(=O)[C@@H](N)CS(=O)(=O)c3ccc(C(=O)N[C@@H]4CC4(F)F)cc32)cc1 [Example 161, (3R)-3-amino-N-[(1R)-2,2-difluorocyclopropyl]-5-[(4-methoxyphenyl)methyl]-1,1,4-trioxo-2,3,4,5-tetrahydro-1λ^6,5-benzothiazepine-7-carboxamide] |  | > 5.01 | > 5.01
9 | N[C@H]1CS(=O)(=O)c2ccc(C(=O)NCCCC(F)(F)F)cc2N(Cc2ccccc2)C1=O [Example 162, (3R)-3-amino-5-benzyl-1,1,4-trioxo-N-(4,4,4-trifluorobutyl)-2,3,4,5-tetrahydro-1λ^6,5-benzothiazepine-7-carboxamide] |  | > 5.01 | > 5.01
10 | N[C@H]1CS(=O)(=O)c2ccc(C(=O)NCC3CCOCC3)cc2N(Cc2ccc(OC(F)F)cc2)C1=O [Example 164, (3R)-3-amino-5-{[4-(difluoromethoxy)phenyl]methyl}-N-[(oxan-4-yl)methyl]-1,1,4-trioxo-2,3,4,5-tetrahydro-1λ^6,5-benzothiazepine-7-carboxamide] |  | > 5.01 | > 5.01
11 | C[C@@H](NC(=O)c1ccc2c(c1)N(Cc1ccc(Cl)cc1)C(=O)[C@@H](N)CS2(=O)=O)C1CCOCC1 [Example 166, (3R)-3-amino-5-[(4-chlorophenyl)methyl]-N-[(1R)-1-(oxan-4-yl)ethyl]-1,1,4-trioxo-2,3,4,5-tetrahydro-1λ^6,5-benzothiazepine-7-carboxamide] |  | > 5.01 | > 5.01
12 | N[C@H]1CS(=O)(=O)c2ccc(C(=O)N[C@@H]3CC3(F)F)cc2N(Cc2ccccc2)C1=O [Example 167, (3R)-3-amino-5-benzyl-N-[(1R)-2,2-difluorocyclopropyl]-1,1,4-trioxo-2,3,4,5-tetrahydro-1λ^6,5-benzothiazepine-7-carboxamide] |  | > 5.01 | > 5.01
13 | Cc1ccc(CNC(=O)c2ccc3c(c2)N(Cc2ccc(Cl)cc2)C(=O)[C@@H](N)CS3(=O)=O)cn1 [Example 168, (3R)-3-amino-5-[(4-chlorophenyl)methyl]-N-[(6-methylpyridin-3-yl)methyl]-1,1,4-trioxo-2,3,4,5-tetrahydro-1λ^6,5-benzothiazepine-7-carboxamide] |  | 1.58 to 5.01 | > 5.01
14 | N#Cc1ccc(CN2C(=O)[C@@H](N)CS(=O)(=O)c3cc(F)c(C(=O)NCc4ccc(F)cc4)cc32)cc1 [Example 170, (3R)-3-amino-5-[(4-cyanophenyl)methyl]-8-fluoro-N-[(4-fluorophenyl)methyl]-1,1,4-trioxo-2,3,4,5-tetrahydro-1λ^6,5-benzothiazepine-7-carboxamide] |  | < 1.58 | < 1.58
15 | COCCOCCNC(=O)c1cc2c(cc1F)S(=O)(=O)C[C@H](N)C(=O)N2Cc1ccc(Cl)cc1 [Example 172, (3R)-3-amino-5-[(4-chlorophenyl)methyl]-8-fluoro-N-[2-(2-methoxyethoxy)ethyl]-1,1,4-trioxo-2,3,4,5-tetrahydro-1λ^6,5-benzothiazepine-7-carboxamide] |  | 1.58 to 5.01 | > 5.01
16 | C#CCCNC(=O)c1cc2c(cc1F)S(=O)(=O)C[C@H](N)C(=O)N2Cc1ccc(Cl)cc1 [Example 173, (3R)-3-amino-N-(but-3-yn-1-yl)-5-[(4-chlorophenyl)methyl]-8-fluoro-1,1,4-trioxo-2,3,4,5-tetrahydro-1λ^6,5-benzothiazepine-7-carboxamide] |  | 1.58 to 5.01 | > 5.01
17 | C#CCCCNC(=O)c1cc2c(cc1F)S(=O)(=O)C[C@H](N)C(=O)N2Cc1ccc(Cl)cc1 [Example 174, (3R)-3-amino-5-[(4-chlorophenyl)methyl]-8-fluoro-1,1,4-trioxo-N-(pent-4-yn-1-yl)-2,3,4,5-tetrahydro-1λ^6,5-benzothiazepine-7-carboxamide] |  | 1.58 to 5.01 | 1.58 to 5.01
18 | COc1ccc(CNC(=O)c2ccc3c(c2)N(Cc2ccc(Cl)cc2)C(=O)[C@@H](N)CS3(=O)=O)cn1 [Example 177, (3R)-3-amino-5-[(4-chlorophenyl)methyl]-N-[(6-methoxypyridin-3-yl)methyl]-1,1,4-trioxo-2,3,4,5-tetrahydro-1λ^6,5-benzothiazepine-7-carboxamide] |  | < 1.58 | 1.58 to 5.01
19 | N[C@H]1CS(=O)(=O)c2ccc(C(=O)NC3CC4(COC4)C3)cc2N(Cc2ccc(Cl)cc2)C1=O [Example 181, (3R)-3-amino-5-[(4-chlorophenyl)methyl]-N-{2-oxaspiro[3.3]heptan-6-yl}-1,1,4-trioxo-2,3,4,5-tetrahydro-1λ^6,5-benzothiazepine-7-carboxamide] |  | > 5.01 | > 5.01
20 | CCN[C@H]1CS(=O)(=O)c2cc(F)c(C(=O)NCCCC(F)(F)F)cc2N(Cc2ccc(Cl)cc2)C1=O [Example 182, (3R)-5-[(4-chlorophenyl)methyl]-3-(ethylamino)-8-fluoro-1,1,4-trioxo-N-(4,4,4-trifluorobutyl)-2,3,4,5-tetrahydro-1λ^6,5-benzothiazepine-7-carboxamide] |  | 1.58 to 5.01 | > 5.01
